Source: patent EP4755881A1 (Wuhan Createrna Science and Technology Co., Ltd., priority 2023, dated 2025)
Where two headings read alike, the source gives them in different places.

Legend:
LPAR1 receptor = molecular target: T1, LPAR1 receptor (Homo sapiens, UniProt Q92633); assay: LPAR1 in vitro biological activity evaluation 2: HTRF cAMP kit (LANCE Ultra cAMP Kit) assay in CHO stable transfected cell line expressing the LPAR1 receptor; assay type: cell-based
T1 construct: expressed in transfected cells
Method: The inhibitory effects of the compounds of the present disclosure on the LPAR1 receptor were determined using a Chinese hamster ovary (CHO) stable transfected cell line expressing the LPAR1 receptor, through the HTRF cAMP kit (LANCE® Ultra cAMP Kit).
The CHO cell line expressing the LPAR1 receptor was cultured in F-12 medium (Gibco, 117650054) containing 10% fetal bovine serum (FBS, Avantor, 76294-180) and 0.2 mg/mL hygromycin B (Solarbio, H8080-1g) at 37°C with 5% CO2. Cell passage, recovery, and cryopreservation were performed according to conventional methods. The stable transfected cell line was cultured to 80% confluence, digested with trypsin to collect cells, counted, and then seeded at 5 µL/well in a 384-well plate (500 cells/5 µL). The 1× Stimulation Buffer was prepared according to the instructions of the kit (LANCE® Ultra cAMP Kit). 1 µL of the test compound solution (diluted to 10× with 1× Stimulation Buffer) was added to the corresponding experimental wells, followed by centrifugation and incubation at 37°C for 10 minutes. […] 5 µL/well of Eu-cAMP (diluted with Detection buffer) was added to the corresponding experimental wells. 5 µL/well of ULight™-anti-cAMP antibody (diluted with Detection buffer) was added to the corresponding experimental wells, followed by centrifugation and incubation at room temperature for 1 hour. After the incubation was completed, the readings at 665 nm and 620 nm under 330 nm excitation were detected using the HTS high-throughput drug screening multifunctional microplate reader (BMG, PHERAstar FSX). The IC50 values were calculated by fitting nonlinear regression (dose response - variable slope) using GraphPad Prism software.

[1] = molecular target: hLPAR1 (human lysophosphatidic acid receptor 1, Accession No.: NM_001401.4) (Homo sapiens, UniProt Q92633); assay: cell-based; conditions: FLIPR method, CHO-K1 cells overexpressing hLPAR1
Procedure, shortened: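 Antagonist mode in CHO-K1 cells stably expressing hLPAR1, Fluo-4 loaded; compound preincubated 30 min at room temperature before 1 µM oleoyl-LPA (final) challenge.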

[2] = Pharmacokinetic study in rats (oral gavage and tail vein injection, plasma LC-MS/MS); assay type: in vivo; conditions: rat; for Cmax: read-out: Cmax
Procedure, shortened: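 Plasma from SD rats is taken at 0.167–24 h after oral gavage or at 0.033–24 h after intravenous tail-vein dosing and assayed by LC-MS/MS. Oral animals are fasted overnight and dosed in DMSO/ethanol/PEG400/saline; IV animals receive ethanol/water/PEG400. PK parameters come from a non-compartmental model.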

[3] = Table 2, read-out: LPAR1 inhibitory activity IC50
[4] = Table 1, read-out: LPAR1 inhibitory activity IC50
[5] = LPAR1 inhibitory activity IC50, Table 1

Sequence of hLPAR1 (human lysophosphatidic acid receptor 1, Accession No.: NM_001401.4) (Q92633 whole entry): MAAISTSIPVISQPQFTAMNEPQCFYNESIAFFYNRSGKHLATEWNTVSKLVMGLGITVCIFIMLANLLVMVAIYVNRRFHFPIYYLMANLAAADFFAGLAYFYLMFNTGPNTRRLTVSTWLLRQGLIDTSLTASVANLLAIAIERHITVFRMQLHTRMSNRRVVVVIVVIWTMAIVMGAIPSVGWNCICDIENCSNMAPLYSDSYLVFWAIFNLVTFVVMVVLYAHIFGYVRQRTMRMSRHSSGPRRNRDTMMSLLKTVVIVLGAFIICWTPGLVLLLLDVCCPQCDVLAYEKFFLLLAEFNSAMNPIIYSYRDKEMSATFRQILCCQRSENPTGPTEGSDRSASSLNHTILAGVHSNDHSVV
T1 sequence (Q92633 whole entry): as above

half-life ([2]; male, SD, iv, 1 mg/kg) [h]	half-life ([2]; male, SD, po, 1 mg/kg) [h]	AUC(0-t) ([2]; male, SD rats, Iv, 1 mg/kg) [µg·h/mL]	Cmax ([2]; male, SD rats, Iv, 1 mg/kg) [µg/mL]	AUC(0-t) ([2]; male, SD rats, Po, 1 mg/kg) [µg·h/mL]	Cmax ([2]; male, SD rats, Po, 1 mg/kg) [µg/mL]	Compound	IC50 (LPAR1 receptor; [3]) [µM]	AUC(0-t) ([2]; SD rats, Iv, 1 mg/kg) [µg·h/mL]	half-life ([2]; SD rats, Iv, 1 mg/kg) [h]	Cmax ([2]; SD rats, Iv, 1 mg/kg) [µg/mL]	AUC(0-t) ([2]; SD rats, Po, 1 mg/kg) [µg·h/mL]	half-life ([2]; SD rats, Po, 1 mg/kg) [h]	Cmax ([2]; SD rats, Po, 1 mg/kg) [µg/mL]	also measured
–	–	–	–	–	–	CCC[C@@H](C)OC(=O)Nc1c(-c2ccc(C#C[C@@H]3C[C@H]3C(=O)O)c(C)n2)nnn1C (mixture of isomers) [224-B, trans-2-((2-methyl-6-(1-methyl-5-(((((R)-pentan-2-yl)oxy)carbonyl)amino)-1H-1,2,3-triazol-4-yl)pyridin-3-yl)ethynyl)cyclopropane-1-carboxylic acid]	0.127	–	–	–	–	–	–	IC50 [1, 4]: 0.07 µM
–	–	–	–	–	–	CCCC(C)OC(=O)Nc1c(-c2ccc(C#CC3CCCC3C(=O)O)c(C)n2)nnn1C (single isomer, unassigned) [305-B]	0.0815	3 to 5	3.52	0.8 to 5	5 to 10	3.49	0.8 to 5	–
3.26	2.37	0.811	1.57	0.626	0.154	CCCN(C)C(=O)OCc1c(-c2ccc(O[C@H]3CCC[C@H](C(=O)O)C3)c(C)n2)nnn1C [Control compound 1, reference compound]	0.407	–	–	–	–	–	–	half-life ([2]; male, SD, po, 3 mg/kg): 2.59 h; AUC(0-t) ([2]; male, SD rats, Po, 3 mg/kg): 1.54 µg·h/mL; Cmax ([2]; male, SD rats, Po, 3 mg/kg): 0.985 µg/mL
–	–	–	–	–	–	CCc1nc(-c2nnn(C)c2NC(=O)O[C@H](C)CC(C)(F)F)ccc1C#CC1(CC(=O)O)CC1 [compound 232]	0.0754	5 to 10	14.5	0.8 to 5	3 to 5	14	0.2 to 0.8	–
–	–	–	–	–	–	Cc1nc(-c2onc(C)c2NC(=O)O[C@H](C)CC(C)(F)F)ccc1C#CC1(CC(=O)O)CC1 [compound 276]	0.0964	3 to 5	3.69	0.8 to 5	–	–	–	–
5.24	4.5	5 to 10	5 to 8	5 to 10	0.2 to 0.8	CCC[C@@H](C)OC(=O)Nc1c(-c2ccc(C#CC3(CC(=O)O)CC(OC)C3)c(C)n2)nnn1C (some centres unmarked) [compound 278]	0.0344	–	–	–	–	–	–	IC50 [1, 4]: 0.0381 µM
–	–	–	–	–	–	Cc1nc(-c2nnn(C)c2NC(=O)O[C@H](C)CC(C)C)ccc1C#C[C@@H]1CC[C@H]1C(=O)O [compound 308]	0.0932	–	–	–	–	–	–	IC50 [1, 5]: 0.0109 µM
4.36	4.08	3 to 5	0.8 to 5	5 to 10	0.8 to 5	Cc1nc(-c2nnn(C)c2NC(=O)O[C@H](C)c2ccccc2)ccc1C#C[C@@H]1CC[C@H]1C(=O)O [compound 309]	0.0832	–	–	–	–	–	–	–
–	–	–	–	–	–	CCCC[C@@H](C)OC(=O)Nc1c(-c2ccc(C#CC3(CC(=O)O)CC3)c(C)n2)nnn1C [compound 313]	0.156	3 to 5	5.12	0.8 to 5	–	–	–	AUC(0-t) ([2]; SD rats, Po, 3 mg/kg): 10 to 20 µg·h/mL; half-life ([2]; SD rats, Po, 3 mg/kg): 5.59 h; Cmax ([2]; SD rats, Po, 3 mg/kg): 0.8 to 5 µg/mL; IC50 [1, 5]: 0.0161 µM
6.87	5.7	3 to 5	5 to 8	3 to 5	0.2 to 0.8	CCOC1CC(C#Cc2ccc(-c3nnn(C)c3NC(=O)O[C@H](C)C(F)(F)CC)nc2C)(CC(=O)O)C1 (some centres unmarked) [compound 429]	0.0334	–	–	–	–	–	–	–
–	–	–	–	–	–	CCC(F)(F)[C@@H](C)OC(=O)Nc1c(-c2ccc(C#CC3(CC(=O)O)CC3)c(C)n2)noc1C [compound 444]	0.0484	1.2 to 3	2.91	0.8 to 5	3 to 5	3.61	0.2 to 0.8	–
6.41	5.41	5 to 10	8 to 12	10 to 20	0.8 to 5	CCc1nc(-c2nnn(C)c2NC(=O)O[C@H](C)C(F)(F)CC)ccc1C#CC1(CC(=O)O)CC(OC)C1 (some centres unmarked) [compound 462]	0.0487	–	–	–	–	–	–	–
–	–	–	–	–	–	CCC(F)(F)[C@@H](C)OC(=O)Nc1c(-c2ccc(C#CC3(CC(=O)O)CC(OC)C3)c(C(F)(F)F)n2)nnn1C (some centres unmarked) [compound 463]	0.0382	3 to 5	5.44	5 to 8	5 to 10	5.47	0.8 to 5	–
–	–	–	–	–	–	CCC(F)(F)[C@@H](C)OC(=O)Nc1c(-c2ccc(C#CC3(CC(=O)O)CC(OC)C3)c(C)n2)noc1C (some centres unmarked) [compound 468]	–	3 to 5	2.35	0.8 to 5	5 to 10	2.77	0.2 to 0.8	IC50 (LPAR1 receptor; LPAR1 inhibitory activity IC50, Table 2): 0.0316 µM
–	–	–	–	–	–	CCc1nc(-c2noc(C)c2NC(=O)O[C@H](C)C(F)(F)CC)ccc1C#CC1(CC(=O)O)CC(OC)C1 (some centres unmarked) [compound 492]	0.0086	5 to 10	3.92	0.8 to 5	5 to 10	3.75	0.8 to 5	–
2.51	2.41	10 to 20	8 to 12	10 to 20	0.8 to 5	CCC(F)(F)[C@@H](C)OC(=O)Nc1c(C)noc1-c1ccc(C#CC2(CC(=O)O)CC(OC)C2)c(C(F)(F)F)n1 (some centres unmarked) [compound 506]	0.0201	–	–	–	–	–	–	–
